Values of other authors as cited in article PMC9851200, “Multiparameter phenotypic screening for endogenous TFEB and TFE3 translocation identifies novel chemical series modulating lysosome function” (Autophagy, 2022).

Tests used:
Set-up in all cases: method as in original PKIS2 published data
[1] = biological target: kinases (KINOMEscan panel) (Homo sapiens, UniProt Q00536); conditions: kinase CDK16; Published KINOMEscan; ref original PKIS2 published data; cited from earlier work
[2] = biological target: kinases (KINOMEscan panel) (Homo sapiens, UniProt Q8TDX7); conditions: NEK7; Published KINOMEscan; ref original PKIS2 published data; cited from earlier work
[3] = biological target: T1, kinases (KINOMEscan panel) (Homo sapiens, UniProt P57058); conditions: kinase HUNK; Published KINOMEscan; ref original PKIS2 published data; cited from earlier work
T1 sequence (P57058 1-714): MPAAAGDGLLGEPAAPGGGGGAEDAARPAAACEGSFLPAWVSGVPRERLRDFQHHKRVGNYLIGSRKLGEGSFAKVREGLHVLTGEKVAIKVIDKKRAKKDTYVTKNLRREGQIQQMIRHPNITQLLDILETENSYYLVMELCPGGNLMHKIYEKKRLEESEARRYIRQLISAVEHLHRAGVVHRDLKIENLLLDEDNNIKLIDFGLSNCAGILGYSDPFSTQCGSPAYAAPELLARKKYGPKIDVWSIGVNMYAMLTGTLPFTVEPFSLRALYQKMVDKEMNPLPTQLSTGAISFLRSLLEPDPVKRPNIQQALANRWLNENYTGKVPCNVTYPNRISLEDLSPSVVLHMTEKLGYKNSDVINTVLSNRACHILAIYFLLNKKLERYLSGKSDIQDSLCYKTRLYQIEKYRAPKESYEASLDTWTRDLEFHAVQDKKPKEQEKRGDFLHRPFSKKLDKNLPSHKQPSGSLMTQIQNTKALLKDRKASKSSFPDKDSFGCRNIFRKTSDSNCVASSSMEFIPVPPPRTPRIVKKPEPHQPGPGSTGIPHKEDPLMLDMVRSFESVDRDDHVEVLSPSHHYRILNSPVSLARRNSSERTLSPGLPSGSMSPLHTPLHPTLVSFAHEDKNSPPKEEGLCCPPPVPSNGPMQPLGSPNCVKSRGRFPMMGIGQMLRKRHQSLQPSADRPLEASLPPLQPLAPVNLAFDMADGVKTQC

[4] = biological target: kinases (KINOMEscan panel) (Homo sapiens, UniProt Q9Y243); conditions: kinase AKT3; Published KINOMEscan; ref original PKIS2 published data; cited from earlier work
[5] = biological target: T2, kinases (KINOMEscan panel) (Homo sapiens, UniProt O00329); conditions: Published KINOMEscan; ref original PKIS2 published data; cited from earlier work
T2 sequence (O00329 1-1044): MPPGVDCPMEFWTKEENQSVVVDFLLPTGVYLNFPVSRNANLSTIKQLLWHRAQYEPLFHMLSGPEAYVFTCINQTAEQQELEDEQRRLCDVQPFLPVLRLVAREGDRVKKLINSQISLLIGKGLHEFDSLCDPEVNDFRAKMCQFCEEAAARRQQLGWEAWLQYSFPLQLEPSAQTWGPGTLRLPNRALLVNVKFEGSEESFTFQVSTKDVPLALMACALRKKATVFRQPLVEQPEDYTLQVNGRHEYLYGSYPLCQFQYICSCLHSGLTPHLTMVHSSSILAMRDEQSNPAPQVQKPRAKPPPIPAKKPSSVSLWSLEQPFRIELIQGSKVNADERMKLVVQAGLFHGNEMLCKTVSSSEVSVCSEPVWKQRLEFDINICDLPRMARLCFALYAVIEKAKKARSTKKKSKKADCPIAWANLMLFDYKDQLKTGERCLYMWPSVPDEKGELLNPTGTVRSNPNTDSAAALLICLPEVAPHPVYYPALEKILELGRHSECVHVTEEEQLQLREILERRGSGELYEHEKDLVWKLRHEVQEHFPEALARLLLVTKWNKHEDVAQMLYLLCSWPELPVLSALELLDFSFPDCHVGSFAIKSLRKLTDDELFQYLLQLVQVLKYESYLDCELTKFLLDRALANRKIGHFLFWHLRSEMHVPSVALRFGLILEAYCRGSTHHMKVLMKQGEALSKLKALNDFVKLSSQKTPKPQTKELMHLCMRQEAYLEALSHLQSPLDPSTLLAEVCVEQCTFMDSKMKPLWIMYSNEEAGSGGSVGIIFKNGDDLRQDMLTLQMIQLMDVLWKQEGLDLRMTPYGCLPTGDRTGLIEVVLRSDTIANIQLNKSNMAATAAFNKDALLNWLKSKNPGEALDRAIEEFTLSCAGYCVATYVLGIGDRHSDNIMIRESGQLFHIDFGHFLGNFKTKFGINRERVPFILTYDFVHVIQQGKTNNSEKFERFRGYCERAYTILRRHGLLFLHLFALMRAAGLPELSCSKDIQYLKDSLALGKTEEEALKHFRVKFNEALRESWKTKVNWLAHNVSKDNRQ

[6] = biological target: T3, kinases (KINOMEscan panel) (Homo sapiens, UniProt P41743); conditions: PRKCI; Published KINOMEscan; ref original PKIS2 published data; cited from earlier work
T3 sequence (P41743 1-596): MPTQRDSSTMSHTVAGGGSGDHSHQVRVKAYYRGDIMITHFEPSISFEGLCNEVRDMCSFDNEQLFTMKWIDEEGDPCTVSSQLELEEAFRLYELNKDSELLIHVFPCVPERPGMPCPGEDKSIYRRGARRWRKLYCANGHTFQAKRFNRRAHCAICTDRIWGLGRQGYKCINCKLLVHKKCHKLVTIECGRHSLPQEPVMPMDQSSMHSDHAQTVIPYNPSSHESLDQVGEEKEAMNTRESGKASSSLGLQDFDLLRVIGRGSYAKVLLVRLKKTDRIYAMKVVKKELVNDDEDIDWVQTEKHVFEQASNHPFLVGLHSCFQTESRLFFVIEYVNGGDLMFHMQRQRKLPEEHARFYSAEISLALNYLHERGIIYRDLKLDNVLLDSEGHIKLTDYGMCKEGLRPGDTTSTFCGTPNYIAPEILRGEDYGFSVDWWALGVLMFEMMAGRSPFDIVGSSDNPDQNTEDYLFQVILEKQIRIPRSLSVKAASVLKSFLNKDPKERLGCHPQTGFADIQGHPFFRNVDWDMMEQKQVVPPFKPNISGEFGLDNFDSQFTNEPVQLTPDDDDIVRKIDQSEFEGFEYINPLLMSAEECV

Chain of kinases (KINOMEscan panel) (Homo sapiens, UniProt Q8TDX7) (Q8TDX7 whole entry): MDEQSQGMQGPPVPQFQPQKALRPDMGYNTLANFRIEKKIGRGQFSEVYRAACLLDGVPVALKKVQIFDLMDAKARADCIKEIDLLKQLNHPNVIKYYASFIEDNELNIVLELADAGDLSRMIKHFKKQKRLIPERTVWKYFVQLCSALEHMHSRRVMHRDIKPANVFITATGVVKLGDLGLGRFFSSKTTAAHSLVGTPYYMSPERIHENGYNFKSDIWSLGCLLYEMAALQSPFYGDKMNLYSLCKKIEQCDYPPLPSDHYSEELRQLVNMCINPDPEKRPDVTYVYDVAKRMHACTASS
Chain of kinases (KINOMEscan panel) (Homo sapiens, UniProt Q9Y243) (Q9Y243 whole entry): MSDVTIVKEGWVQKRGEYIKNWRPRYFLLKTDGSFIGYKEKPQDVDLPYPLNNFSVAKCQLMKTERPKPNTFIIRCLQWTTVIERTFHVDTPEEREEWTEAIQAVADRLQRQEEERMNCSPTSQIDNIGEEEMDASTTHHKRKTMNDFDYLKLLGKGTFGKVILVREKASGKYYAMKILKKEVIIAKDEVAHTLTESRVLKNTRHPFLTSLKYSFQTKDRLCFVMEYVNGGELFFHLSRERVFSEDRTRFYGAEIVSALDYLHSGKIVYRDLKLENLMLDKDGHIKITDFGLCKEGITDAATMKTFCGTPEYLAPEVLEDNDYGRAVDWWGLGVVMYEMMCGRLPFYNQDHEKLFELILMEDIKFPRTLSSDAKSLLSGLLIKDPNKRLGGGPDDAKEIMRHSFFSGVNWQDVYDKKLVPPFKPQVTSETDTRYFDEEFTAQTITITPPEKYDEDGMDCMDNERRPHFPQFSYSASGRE
Chain of kinases (KINOMEscan panel) (Homo sapiens, UniProt Q00536) (Q00536 whole entry): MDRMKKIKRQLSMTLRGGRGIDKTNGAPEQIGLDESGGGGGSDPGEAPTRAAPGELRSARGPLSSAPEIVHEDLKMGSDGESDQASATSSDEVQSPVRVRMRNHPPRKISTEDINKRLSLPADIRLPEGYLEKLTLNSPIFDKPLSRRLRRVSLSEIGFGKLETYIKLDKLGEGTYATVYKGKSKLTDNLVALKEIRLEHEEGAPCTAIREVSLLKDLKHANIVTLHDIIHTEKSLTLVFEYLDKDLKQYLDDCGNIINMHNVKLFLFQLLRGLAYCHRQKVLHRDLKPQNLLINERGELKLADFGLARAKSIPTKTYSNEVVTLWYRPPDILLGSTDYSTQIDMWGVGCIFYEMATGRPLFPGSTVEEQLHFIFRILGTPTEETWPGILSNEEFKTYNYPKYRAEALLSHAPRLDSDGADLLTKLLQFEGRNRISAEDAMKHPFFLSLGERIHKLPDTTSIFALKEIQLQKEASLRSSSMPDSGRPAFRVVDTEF

Cc1cccc(-c2nc(Nc3ccncc3)c3ccccc3n2)n1 [NK215]
KINOMEscan CDK16 [1]: 0
KINOMEscan NEK7 [2]: 0
KINOMEscan HUNK [3]: 0
KINOMEscan AKT3 [4]: 0
KINOMEscan PIK3CD [5]: 0
KINOMEscan PRKCI [6]: 32
